Like-named read-outs stand apart in the source and are kept apart here.
Tests used:
Type in all cases: cell-based
PD-L1 = test: Western blot of PD-L1 in MIA PaCa-2 cells; conditions: 24 hours
Description: MIA PaCa-2 cells expressing detectable levels of PD-L1 are treated with Compound 7A at various concentrations for 24 hours, and the ensuing level of PD-L1 are determined by Western blot to decrease by about 50% after the treatment.

Jurkat E6.1 = test: ONCOLINES Profiler proliferation; conditions: Homo sapiens; Jurkat E6.1, T cell leukemia
Text: (§1) The compounds were profiled on an ONCOLINES™ Profiler (Netherlands Translational Research Center) assayed with 66 cancer cell lines to determine if they were capable of inhibiting the proliferation of these cancer cells.

Daoy = test: ONCOLINES Profiler proliferation; conditions: Homo sapiens, medulloblastoma
Text: as §1

A388 = test: ONCOLINES Profiler proliferation; conditions: A388, epidermal carcinoma
Text: as §1

SR = test: ONCOLINES Profiler proliferation; conditions: Homo sapiens, large cell immunoblastic lymphoma
Text: as §1

HCT-116 = test: ONCOLINES Profiler proliferation; conditions: Homo sapiens; HCT-116, colon carcinoma
Text: as §1

DoTc2 4510 = test: ONCOLINES Profiler proliferation; conditions: Homo sapiens; DoTc2 4510, cervix carcinoma
Text: as §1

K-562 = test: ONCOLINES Profiler proliferation; conditions: Homo sapiens, K562; K-562, CML
Text: as §1

SK-N-AS = test: ONCOLINES Profiler proliferation; conditions: Homo sapiens, neuroblastoma
Text: as §1

VA-ES-BJ = test: ONCOLINES Profiler proliferation; conditions: epithelioid carcinoma, bone
Text: as §1

OVCAR-3 = test: ONCOLINES Profiler proliferation; conditions: Homo sapiens; OVCAR-3, ovary adenocarcinoma
Text: as §1

MIA PaCa-2 = test: ONCOLINES Profiler proliferation; conditions: Homo sapiens; MIA PaCa-2, pancreatic ductal carcinoma
Text: as §1

PA-1 = test: ONCOLINES Profiler proliferation; conditions: Homo sapiens; PA-1, ovary teratocarcinoma
Text: as §1

[1] = tested on: malignant melanoma cell line MWo; test: ONCOLINES Profiler proliferation
Text: as §1

U937 cells = test: WST-1 cell viability assay; conditions: for IC50: Homo sapiens, U-937, 72-hour treatment
Description: Compound Compound 9A was tested for the ability to inhibit the proliferation of Mia-Paca-2 pancreatic cancer cells. Mia-Paca-2 and MDA-MB-231 cells were seeded into the wells of a 96 well tissue culture plate in complete medium (10% fetal calf serum) and incubated overnight at 37° C./5% CO2). The medium was exchanged for fresh medium containing varying concentrations of Compound 9A and the plate was incubated for 72 hours at 37° C./5% CO2. The viability of cells at the end of this incubation was assessed with the WST-1 reagent. To 10 ml of warm (37° C.) complete medium, 1 ml WST-1 reagent was added. The medium from the wells of the plate with the Mia-Paca-2 cells was removed and replaced with 100 μL of the WST-1 reagent in complete medium. The plate was incubated at 37 37° C./5% CO2. At timed intervals the absorbance at 450 nm was determined for each well in a UVNis plate reader. For each well the slope of the plot of the absorbance 450 nm vs time was determined. The readings were normalized to that of the wells for the untreated control and a dose-response curve was plotted. A fit to the data was made from a four parameter, variable slope program (GraphPad Prism) and the IC50 was determined.
The effect of Compound 7A on U937 cells was assessed using the same experiment described in the Inhibitory Activities against the Proliferation of Mia-Paca-2 and Other Cancer Cells section above. In response to treatment with Compound 7A, proliferation of U937 leukemia cells was inhibited and induced apoptosis was obsessed by trypan blue staining.
U937 cells were treated with the Bcl-2/Bcl-xL inhibitor ABT737 72 hours at varying concentrations and underwent western blot analysis.

DU 145 = test: ONCOLINES Profiler proliferation
Text: as §1
(§2) To further evaluate potency of the compounds, they were compared with the USP9X inhibitor WP 1130 by screening both the compounds and WP1130 on a 66-cancer cell line panel ONCOLINES™ Profiler.

BT-20 = test: ONCOLINES Profiler proliferation
Text: as §1, §2

RPMI-7951 = test: ONCOLINES Profiler proliferation
Text: as §1, §2

A549 = test: ONCOLINES Profiler proliferation
Text: as §1, §2

A-172 = test: ONCOLINES Profiler proliferation
Text: as §1, §2

RKO = test: ONCOLINES Profiler proliferation; conditions: for IC50: colon carcinoma
Text: as §1, §2

H82 = test: ONCOLINES Profiler proliferation
Text: as §1, §2

MOLT-4 = test: ONCOLINES Profiler proliferation
Text: as §1, §2

Hs 57BT = test: ONCOLINES Profiler proliferation; conditions: for IC50: Hs 57BT (Hs578T), breast carcinoma
Text: as §1, §2

LoVo = test: ONCOLINES Profiler proliferation; conditions: for IC50: colorectal adenocarcinoma
Text: as §1, §2

CCRF-CEM = test: ONCOLINES Profiler proliferation; conditions: for IC50: acute lymphoblastic leukemia
Text: as §1, §2

CN1CCOc2ccc(cc2)C(=O)NCc2ccc(F)c(c2)C(=O)N[C@@H](CC(C)(C)C)C(=O)Nc2ccc(cc2)CCN(C)C(=O)CC(C)(C)CC1=O [Compound 7A]
decrease of level of PD-L1 (PD-L1): about 50%
IC50 (Jurkat E6.1): 0.548 µM
IC50 (Daoy): 3.38 µM
IC50 (A388): 2.39 µM
IC50 (SR): 1.58 µM
IC50 (HCT-116): 2.39 µM
IC50 (DoTc2 4510): 0.963 µM
IC50 (K-562): 0.486 µM
IC50 (SK-N-AS): 1.72 µM
IC50 (VA-ES-BJ): 0.682 µM
IC50 (OVCAR-3): 2.4 µM
IC50 (MIA PaCa-2): 0.79 µM
IC50 (PA-1): 2.07 µM
IC50 [1]: > 32 µM
IC50 (U937 cells; read-out: IC50 for the inhibition of U937): 0.27 µM
IC50 (U937 cells; U937 cells, single agent, read-out: IC50, cell viability): 0.27 µM
enhancement in ABT737's potency / sensitivity of cells to ABT737 (U937 cells; U937 cells, co-treatment of 0.5 μM Compound 7A): 57 fold
cell viability decreased to (U937 cells; U937 cells, when Mcl-1 level decreased by 50%): 0
IC50 Ratio WP1130/Compound 7A (DU 145; DU145): 4.8
IC50 (DU 145; DU 145, prostate carcinoma): 2 µM
IC50 (DU 145; Homo sapiens, DU-145, DU 145, prostate carcinoma): 2.01 µM
IC50 Ratio WP1130/Compound 7A (BT-20; BT-20): 3.6
IC50 (BT-20; BT-20, breast carcinoma): 1.4 µM
IC50 (BT-20; Homo sapiens, BT-20, BT-20, breast carcinoma): 1.39 µM
IC50 (RPMI-7951; Homo sapiens, RPMI-7951, RPMI-7951, malignant melanoma): 1.2 µM
IC50 Ratio WP1130/Compound 7A (RPMI-7951; RPMI7951): 3.5
IC50 (RPMI-7951; RPMI-7951, malignant melanoma): 1.2 µM
IC50 Ratio WP1130/Compound 7A (A549; A549): 4.7
IC50 (A549; Homo sapiens, A549, lung): 3 µM
IC50 Ratio WP1130/Compound 7A (A-172; A-172): 5.1
IC50 (A-172; A-172, glioblastoma): 1.1 µM
IC50 (A-172; Homo sapiens, A 172, A-172, glioblastoma): 1.07 µM
IC50 Ratio WP1130/Compound 7A (RKO): 4.9
IC50 (RKO; Homo sapiens): 0.88 µM
IC50 (RKO): 0.683 µM
IC50 Ratio WP1130/Compound 7A (H82; H82): 6.0
IC50 (H82; Homo sapiens, NCI-H82, H82, small cell lung): 1.1 µM
IC50 (MOLT-4; Homo sapiens, MOLT-4, MOLT-4, acute lymphoblastic leukemia): 0.594 µM
IC50 Ratio WP1130/Compound 7A (MOLT-4; MOLT-4): 6.8
IC50 (MOLT-4; MOLT-4, acute lymphoblastic leukemia): 0.59 µM
IC50 (Hs 57BT; Homo sapiens, Hs-578T): 1.41 µM
IC50 (Hs 57BT): 1.4 µM
IC50 Ratio WP1130/Compound 7A (Hs 57BT; Hs578T): 4.5
IC50 Ratio WP1130/Compound 7A (LoVo): 8.6
IC50 (LoVo; Homo sapiens): 0.635 µM
IC50 (LoVo): 0.64 µM
IC50 Ratio WP1130/Compound 7A (CCRF-CEM): 17.6
IC50 (CCRF-CEM; Homo sapiens): 0.247 µM
IC50 (CCRF-CEM): 0.25 µM

Source: patent US20240294467A1, “USP9X Inhibitors” (ProDeg, LLC, priority 2021, published 2024)
